From patent US20230218631A1 (priority 2020, published 2023)

Tests used:
Type in all cases: in vivo
[1] = system: wild-type mice (both male and female); assay: Elevated plus maze (anxiety-like behavior)
Procedure: These same mice were tested on a 5-minute elevated plus maze protocol at 1-3 days after their final drinking session. 30-60 minutes following an i.p. injection of either 0, 1, 2, or 4 mg/kg UNC0642, mice were allowed to freely explore the open and closed arms of the elevated plus maze. Less anxious mice typically explore the open arms more quickly and spend more time exploring the open arms. […] No statistically significant effects were observed on the time spent in the open arms, as UNC0642 had no effect on open arms time in the elevated plus maze (see FIG. 7D; One-Way ANOVA, F3,42=0.7372, p=0.5359, 1 outlier removed from the 1 mg/kg group with a Grubbs test) or on the number of entries into the open arms, meaning that UNC0642 had no effect on the number of open arm entries in the elevated plus maze (FIG. 7E; One-Way ANOVA, F3,42=1.396, p=0.2573, 1 outlier removed from the 0 mg/kg group with a Grubbs test). […] Thus, in some embodiments, it can be particularly useful for treating individuals with co-morbid psychiatric diseases and/or disorders and AUD/SUD.

[2] = system: C57BL/6J mice; assay: Two-bottle choice ethanol drinking (non-stressed) under systemic UNC0642
Procedure: Animal Care. Adult male C57BL/6J mice (Jackson Laboratory, Bar Harbor, Me.) were singly housed in a climate-controlled environment (21° C.) on a 12h light-dark cycle. Animals were habituated to the housing environment for at least 7 days prior to use in experiments, and had food and water ad libitum. All drinking and behavioral experiments were performed during the dark cycle as described below, and were approved by the MUSC Institutional Animal Care and Use Committee (IACUC) in facilities accredited by the American Association for the Accreditation of Laboratory Animal Care (AAALAC). All procedures were conducted in accordance with the guidelines established by the National Institutes of Health and the National Research Council.
(§1) Systemic G9A inhibitor administration and stress-potentiated drinking. […] Mice were then divided into 2 even groups and given chronic injections of either vehicle or 4 mg/kg UNC0642 for 2 weeks similar to a previous in vivo study in mice (Wang et al., 2018). Next, following 3 days of withdrawal, control mice were injected with 5 mg/kg U50,488 only and chronic treated mice were given both U50,488 and UNC0642 in the same injection 30 minutes before the session. This test was repeated again the following day and then only vehicle injections were given to all mice for the next 3 days before two-bottle choice testing. Finally, after another 3 day withdrawal, an acute injection of UNC0642+U50,488 was given to the naïve control group while U50,488 alone was administered to the chronic UNC0642 group 30 minutes before drinking.
Systemic EHMT2/G9A Inhibition Suppresses Stress-induced Ethanol Drinking Since reducing EHMT2/G9A levels in the NAc blocked stress-regulated ethanol drinking in mice, we tested whether systemic delivery of a specific EHMT2/G9A methyltransferase inhibitor, UNC0642 (Liu et al, 2013), could block stress-potentiated ethanol drinking. Wild-type mice were allowed to drink ethanol for 2 weeks prior to repeated, daily injections of UNC0642 (4 mg/kg; i.p.) given 30 minutes prior to the 2-bottle choice sessions (FIG. 5A). […]

[3] = system: C57BL/6J mice; assay: U50,488 (kappa agonist) stress-potentiated two-bottle choice ethanol drinking under systemic UNC0642
Procedure: as §1
Systemic EHMT2/G9A Inhibition Suppresses Stress-induced Ethanol Drinking Since reducing EHMT2/G9A levels in the NAc blocked stress-regulated ethanol drinking in mice, we tested whether systemic delivery of a specific EHMT2/G9A methyltransferase inhibitor, UNC0642 (Liu et al, 2013), could block stress-potentiated ethanol drinking. Wild-type mice were allowed to drink ethanol for 2 weeks prior to repeated, daily injections of UNC0642 (4 mg/kg; i.p.) given 30 minutes prior to the 2-bottle choice sessions (FIG. 5A). […] Mice were then allowed to continue ethanol drinking for one additional week before the UNC0642-naïve mice (former vehicle control group) were injected with either vehicle or UNC0642 (4 mg/kg; i.p.) and tested for U50,488-potentiated ethanol drinking.
Since UNC0642 (4 mg/kg, i.p.) blocked stress-regulated ethanol drinking in mice as shown above, it was next tested whether this effect was dose-dependent and if it worked similarly in both sexes. There are reported sex/gender differences in the risk of developing several neuropsychiatric conditions, including AUD, SUD, and mood disorders, and while there was no a priori expectation of a sex-difference in UNC0642 efficacy in reducing stress-potentiated alcohol drinking, we wished to confirm that the treatment would be effective in both males and females. Similar to the studies described hereinabove (FIG. 5A), wild-type mice (both male and female) were allowed to drink ethanol for 2 weeks prior to repeated, daily injections of UNC0642 (4 mg/kg; 2 mg/kg, 1 mg/kg, or 0 mg/kg (vehicle), i.p.) given 30 minutes prior to the 2-bottle choice sessions. […]

## COc1cc2c(NC3CCN(C(C)C)CC3)nc(N3CCC(F)(F)CC3)nc2cc1OCCCN1CCCC1 [UNC0642, 2-(4,4-Difluoropiperidin-1-yl)-6-methoxy-N-[1-(propan-2-yl)piperidin-4-yl]-7-[3-(pyrrolidin-1-yl)propoxy]quinazolin-4-amine]
[1]; 1, 2, 4 mg/kg i.p., FIG. 7D
  time spent in the open arms of the elevated plus maze: no effect
[1]; 1, 2, 4 mg/kg i.p., FIG. 7E
  number of open arm entries in the elevated plus maze: no effect
[1]; all 3 doses (1, 2, 4 mg/kg i.p.), 30-60 min after injection, 5-minute test, both sexes, FIG. 7C
  latency to explore the open arms of the elevated plus maze: reduced the latency
[2]; 4 mg/kg i.p. daily, 30 min before 2-bottle choice session, vs vehicle, FIG. 5B
  ethanol drinking during the first week of daily UNC0642 injections (week 3): significant reduction
[2]; 4 mg/kg i.p. daily, vs vehicle control, FIG. 5B
  ethanol intake in the second week of daily drug treatments (week 4): no difference
[2]; 1, 2 or 4 mg/kg i.p. daily, male and female mice, weeks 3-5, FIG. 7A
  baseline two-bottle choice alcohol drinking during daily UNC0642 injections: no effect
[3]; 2 mg/kg i.p. daily, male and female mice, both sexes similarly, FIG. 7B
  U50,488-potentiated ethanol drinking, chronic UNC0642 2 mg/kg: suppressed
[3]; 4 mg/kg i.p. daily, male and female mice, both sexes similarly, FIG. 7B
  U50,488-potentiated ethanol drinking, chronic UNC0642 4 mg/kg: suppressed
[3]; chronic 4 mg/kg i.p. for 2 weeks, U50,488 5 mg/kg i.p. 30 min before session, FIG. 5C
  U50,488-potentiated ethanol drinking, chronic UNC0642 treatment: suppressed
[3]; single 4 mg/kg i.p. with U50,488 5 mg/kg in UNC0642-naive mice, FIG. 5D
  U50,488-potentiated ethanol drinking, single (acute) injection of UNC0642: failed to influence stress-potentiated drinking
